Consider five molecules from US20230263914A1, “BENZENE RING-CONTAINING GLUCOSE DERIVATIVE AND USE THEREOF” (priority 2020, published 2023).

Molecules are shown by their SMILES.

Data set [1] is described as follows: Determination of lipid-water partition coefficient (n-octanol/PBS pH 7.4). In kind it is physicochemical. The following applies: n-octanol / PBS 0.025 M; for logP: n-octanol/phosphate buffer solution (PBS). On the procedure: A 2 mL centrifuge tube was added with 100 µL (10µCi) of a labeling solution, then added with 950 µL of n-octanol and 850 µL of phosphate buffer solution (PBS, 0.025 M, pH=7.4). The 2 mL centrifuge tube was subjected to vortex for 3 min (2,500 rpm) and standing until the reaction solution was layered, and then centrifuged at 9,000 rpm for 5 min. Three samples (each for 100 µL) were collected from each of the two phases, and placed in γ-counter for the determination of radioactive counting. The lipid-water partition coefficient (P) was calculated by Organic phase radioactive counting/ water phase radioactive counting, and was usually expressed as Log P. The log P values of the radioactive compounds provided in Examples 1-4 were shown in Table 3.

The test system of a further data set is S180 tumor. The data set can be described thus: Biodistribution in tumor-bearing mice. It counts as in vivo. Particulars: for Blood / Bone / Heart / Kidney / Liver / Lung / Muscle / Small intestine / Spleen / Thyroid / Tumor / Tumor/blood ratio / Tumor/muscle ratio: i.v., mice bearing S180 tumor. The protocol: The mice bearing S180 tumors were injected intravenously via the tail vein respectively with the solutions (0.1 mL, 370 kBq) containing the radioactive drugs of Examples 1-4. The mice bearing S180 tumors were sacrificed by decapitation at different time points (30 min, 120 min) after the injection (5 mice for each time point). After dissection, the heart, liver, lung, kidney, spleen, bone, muscle, small intestine, blood and tumors were harvested, and measured for radioactivity with the γ-counter. The biodistribution individual organs or tissues was expressed as the percentage of the injected dose per gram of organ or tissue (% ID/g).

Where [2] appears, read: 120 min, mean ± SD, listed as 99mTc-4-CNPEDG.

What is called logP is the decadic logarithm of the partition coefficient of the neutral form, usually between octanol and water. Low readings indicate a more hydrophilic compound, high ones a more lipophilic compound. For the molecule `O=C(NC1C(O)OC(CO)C(O)C1O)c1cccc(C[N+]#[C][99Tc+]([C]#[N+]Cc2cccc(C(=O)NC3C(O)OC(CO)C(O)C3O)c2)([C]#[N+]Cc2cccc(C(=O)NC3C(O)OC(CO)C(O)C3O)c2)([C]#[N+]Cc2cccc(C(=O)NC3C(O)OC(CO)C(O)C3O)c2)([C]#[N+]Cc2cccc(C(=O)NC3C(O)OC(CO)C(O)C3O)c2)[C]#[N+]Cc2cccc(C(=O)NC3C(O)OC(CO)C(O)C3O)c2)c1` (stereo not shown) [^99mTc-3-CNPEDG], the logP in data set [1] was -3.39 ± 0.166. In the data set on S180 tumor (30 min, n=5, mean ± SD), this molecule returned a Blood of 2.82 ± 0.30 % ID/g, a Bone of 1.26 ± 0.23 % ID/g, a Heart of 1.18 ± 0.12 % ID/g and a Kidney of 9.69 ± 3.48 % ID/g. For the same molecule, in the data set on S180 tumor (30 min, n=5, mean ± SD), the Liver is 1.30 ± 0.06 % ID/g, the Lung is on record as 3.10 ± 0.22 % ID/g, the Muscle is recorded as 0.82 ± 0.24 % ID/g and the Small intestine is recorded as 2.19 ± 0.69 % ID/g. In the data set on S180 tumor (30 min, n=5, mean ± SD), the Spleen came to 0.86 ± 0.09 % ID/g, the Thyroid is 0.04 ± 0.01 %ID/g, the Tumor is reported as 2.72 ± 0.36 % ID/g and the Tumor/blood ratio was 0.97 ± 0.07. Also, the Tumor/muscle ratio in the data set with S180 tumor (30 min, n=5, mean ± SD) is 3.49 ± 0.71. Besides, in the data set with S180 tumor (120 min, mean ± SD), the Blood was determined as 0.22 ± 0.07 % ID/g, the Bone is listed as 0.30 ± 0.06 % ID/g, the Heart is 0.23 ± 0.05 % ID/g and the Kidney is listed as 4.70 ± 0.81 % ID/g. Also, in the data set on S180 tumor (120 min, mean ± SD), the Liver was found to be 0.68 ± 0.07 % ID/g, the Lung came to 0.42 ± 0.09 % ID/g, the Muscle turned out to be 0.16 ± 0.04 % ID/g and the Small intestine is recorded as 0.43 ± 0.11 % ID/g. Also, in the data set on S180 tumor (120 min, mean ± SD), the Spleen was determined as 0.25 ± 0.06 % ID/g, the Thyroid came to 0.01 ± 0.00 %ID/g, the Tumor is given as 1.35 ± 0.20 % ID/g and the Tumor/blood ratio is on record as 6.40 ± 1.45. In addition, the Tumor/muscle ratio with S180 tumor (120 min, mean ± SD) was determined as 8.76 ± 1.14. Further, in the data set with S180 tumor (120 min p.i., in words), the “target/non-target ratio compared with 99mTc-CNPEDG” value was “better target/non-target ratio”; the “tumor uptake compared with 99mTc-CNPEDG” value was “lower tumor uptake”; the “tumor/muscle, tumor/blood and tumor/lung ratio compared with p-substituted 99mTc complexes” value is recorded as “higher”. For the same molecule, the Tumor/lung ratio in the data set with S180 tumor (120 min p.i., mean ± SD) was found to be 3.26 ± 0.37.

Consider `O=C(NC1C(O)OC(CO)C(O)C1O)c1ccc(C[N+]#[C][99Tc+]([C]#[N+]Cc2ccc(C(=O)NC3C(O)OC(CO)C(O)C3O)cc2)([C]#[N+]Cc2ccc(C(=O)NC3C(O)OC(CO)C(O)C3O)cc2)([C]#[N+]Cc2ccc(C(=O)NC3C(O)OC(CO)C(O)C3O)cc2)([C]#[N+]Cc2ccc(C(=O)NC3C(O)OC(CO)C(O)C3O)cc2)[C]#[N+]Cc2ccc(C(=O)NC3C(O)OC(CO)C(O)C3O)cc2)cc1` (stereo not shown) [^99mTc-CNPEDG, reference compound], for which, in the data set on S180 tumor (120 min, mean ± SD), the Blood turned out to be 1.29 ± 0.16 % ID/g, the Kidney is 7.56 ± 0.94 % ID/g, the Liver is recorded as 2.52 ± 0.26 % ID/g and the Lung is 2.39 ± 0.31 % ID/g. In the data set with S180 tumor (120 min, mean ± SD), the Muscle came to 0.82 ± 0.08 % ID/g, the Tumor came to 4.25 ± 0.56 % ID/g, the Tumor/blood ratio was determined as 3.29 ± 0.12 and the Tumor/muscle ratio is 5.21 ± 0.50.

In the case of `O=C(Cc1ccc(C[N+]#[C][99Tc+]([C]#[N+]Cc2ccc(CC(=O)NC3C(O)OC(CO)C(O)C3O)cc2)([C]#[N+]Cc2ccc(CC(=O)NC3C(O)OC(CO)C(O)C3O)cc2)([C]#[N+]Cc2ccc(CC(=O)NC3C(O)OC(CO)C(O)C3O)cc2)([C]#[N+]Cc2ccc(CC(=O)NC3C(O)OC(CO)C(O)C3O)cc2)[C]#[N+]Cc2ccc(CC(=O)NC3C(O)OC(CO)C(O)C3O)cc2)cc1)NC1C(O)OC(CO)C(O)C1O` (stereo not shown) [^99mTc-4-CNMBDG], the log partition coefficient (logP) in data set [1] is -3.1 ± 0.036. For the same molecule, in the data set on S180 tumor (30 min, n=5, mean ± SD), the Blood was found to be 4.08 ± 0.57 % ID/g, the Bone turned out to be 3.05 ± 0.62 % ID/g, the Heart worked out at 2.67 ± 0.41 % ID/g and the Kidney came out at 10.18 ± 1.28 % ID/g. Further, in the data set with S180 tumor (30 min, n=5, mean ± SD), the Liver was 3.00 ± 0.55 % ID/g, the Lung is given as 5.89 ± 0.59 % ID/g, the Muscle is 1.96 ± 0.50 % ID/g and the Small intestine stood at 4.04 ± 0.87 % ID/g. Further, in the data set with S180 tumor (30 min, n=5, mean ± SD), the Spleen was found to be 2.24 ± 0.38 % ID/g, the Thyroid was 0.07 ± 0.01 %ID/g, the Tumor stood at 6.46 ± 1.86 % ID/g and the Tumor/blood ratio is 1.57 ± 0.36. For the same molecule, the Tumor/muscle ratio with S180 tumor (30 min, n=5, mean ± SD) amounted to 3.52 ± 1.35. In the data set on S180 tumor (120 min, mean ± SD), this molecule yielded a Blood of 0.64 ± 0.22 % ID/g, a Bone of 1.27 ± 0.35 % ID/g, a Heart of 1.31 ± 0.18 % ID/g and a Kidney of 7.37 ± 1.71 % ID/g. In the data set on S180 tumor (120 min, mean ± SD), this molecule displayed a Liver of 2.43 ± 0.49 % ID/g, a Lung of 1.31 ± 0.44 % ID/g, a Muscle of 0.86 ± 0.15 % ID/g and a Small intestine of 1.65 ± 0.43 % ID/g. Also, in the data set on S180 tumor (120 min, mean ± SD), the Spleen amounted to 1.28 ± 0.34 % ID/g, the Thyroid worked out at 0.03 ± 0.01 %ID/g, the Tumor came to 6.22 ± 1.77 % ID/g and the Tumor/blood ratio is reported as 10.06 ± 1.54. Also, the Tumor/muscle ratio in the data set with S180 tumor (120 min, mean ± SD) came out at 7.14 ± 1.11. The “tumor uptake compared with 99mTc-CNPEDG” value in the data set on S180 tumor (120 min p.i., in words) is reported as “higher tumor uptake”. For the same molecule, the clearance in blood entry with S180 tumor (compared with 99mTc-CNPEDG, in words) is listed as “faster clearance in blood”.

What is called Log P is a log measure of how a compound divides between an organic and an aqueous phase. Regarding `O=C(NC1C(O)OC(CO)C(O)C1O)c1ccc(CC[N+]#[C][99Tc+]([C]#[N+]CCc2ccc(C(=O)NC3C(O)OC(CO)C(O)C3O)cc2)([C]#[N+]CCc2ccc(C(=O)NC3C(O)OC(CO)C(O)C3O)cc2)([C]#[N+]CCc2ccc(C(=O)NC3C(O)OC(CO)C(O)C3O)cc2)([C]#[N+]CCc2ccc(C(=O)NC3C(O)OC(CO)C(O)C3O)cc2)[C]#[N+]CCc2ccc(C(=O)NC3C(O)OC(CO)C(O)C3O)cc2)cc1` (stereo not shown) [^99mTc-4-CNPeDG], in data set [1], the “Log P” value is -3.593 ± 0.012. In the data set with S180 tumor (30 min, n=5, mean ± SD), the Blood was determined as 2.42 ± 0.16 % ID/g, the Bone was 1.10 ± 0.07 % ID/g, the Heart came to 1.15 ± 0.04 % ID/g and the Kidney was 7.32 ± 0.90 % ID/g. Also, in the data set on S180 tumor (30 min, n=5, mean ± SD), the Liver is 0.95 ± 0.03 % ID/g, the Lung was 2.80 ± 0.13 % ID/g, the Muscle is 0.68 ± 0.05 % ID/g and the Small intestine is 1.38 ± 0.20 % ID/g. Moreover, in the data set on S180 tumor (30 min, n=5, mean ± SD), the Spleen is 0.70 ± 0.02 % ID/g, the Thyroid is recorded as 0.02 ± 0.00 %ID/g, the Tumor is given as 2.80 ± 0.04 % ID/g and the Tumor/blood ratio was 1.16 ± 0.09. For the same molecule, in the data set on S180 tumor (30 min, n=5, mean ± SD), the Tumor/muscle ratio was determined as 4.16 ± 0.35. Further, in the data set on S180 tumor (120 min, mean ± SD), the Blood is 0.10 ± 0.04 % ID/g, the Bone amounted to 0.18 ± 0.03 % ID/g, the Heart is 0.15 ± 0.02 % ID/g and the Kidney is listed as 2.98 ± 0.74 % ID/g. For the same molecule, in the data set on S180 tumor (120 min, mean ± SD), the Liver is 0.38 ± 0.08 % ID/g, the Lung is 0.23 ± 0.03 % ID/g, the Muscle was 0.10 ± 0.02 % ID/g and the Small intestine is recorded as 0.31 ± 0.07 % ID/g. Besides, in the data set with S180 tumor (120 min, mean ± SD), the Spleen was found to be 0.17 ± 0.03 % ID/g, the Thyroid came to 0.003 ± 0.001 %ID/g, the Tumor turned out to be 0.95 ± 0.21 % ID/g and the Tumor/blood ratio stood at 10.17 ± 1.95. For the same molecule, the Tumor/muscle ratio in the data set with S180 tumor (120 min, mean ± SD) came to 9.69 ± 1.81. In the data set with S180 tumor (setting [2]), the Tumor/blood ratio was 3.29 ± 0.12 and the Tumor/muscle ratio was 5.21 ± 0.50. In the data set with S180 tumor (120 min p.i., in words), the “target/non-target ratio compared with 99mTc-CNPEDG” value is “better target/non-target ratio” and the “tumor uptake compared with 99mTc-CNPEDG” value was “lower tumor uptake”. Besides, the Tumor/lung ratio in the data set on S180 tumor (120 min p.i., mean ± SD) was 1.81 ± 0.30.

Consider `O=C(NC1C(O)OC(CO)C(O)C1O)c1ccc([N+]#[C][99Tc+]([C]#[N+]c2ccc(C(=O)NC3C(O)OC(CO)C(O)C3O)cc2)([C]#[N+]c2ccc(C(=O)NC3C(O)OC(CO)C(O)C3O)cc2)([C]#[N+]c2ccc(C(=O)NC3C(O)OC(CO)C(O)C3O)cc2)([C]#[N+]c2ccc(C(=O)NC3C(O)OC(CO)C(O)C3O)cc2)[C]#[N+]c2ccc(C(=O)NC3C(O)OC(CO)C(O)C3O)cc2)cc1` (stereo not shown) [^99mTc-4-CNBzDG], for which, in the data set with S180 tumor (120 min, mean ± SD), the Tumor/blood ratio turned out to be 0.47 ± 0.02 and the Tumor/muscle ratio turned out to be 2.34 ± 0.18. Besides, the Tumor/lung ratio in the data set on S180 tumor (120 min p.i., mean ± SD) worked out at 0.49 ± 0.02.
